Test results as given in US20210330606A1, “GLUCOSE CONSUMPTION ACCELERATOR AND GLYCOLYSIS ACCELERATOR” (SHINKO SANGYO Co., Ltd., priority 2018, published 2021).

What was measured:
[1] = test system: Rat-derived fibroblasts (Py-3Y1-S2, subculture strain); assay: Glucose consumption of rat-derived fibroblasts (relative value, control = 100); format: cell-based
Description: As drugs, 2-amino-1-cyclohexylethanol (Matrix Biochemicals), 2-aminoethanol (Tokyo Chemical Industry Co., Ltd.), 1-amino-2-propanol (Wako Pure Chemical Industries, Ltd.), 2-amino-1-phenylethanol (Tokyo Chemical Industry Co., Ltd.), 1, 3-bis[tris(hydroxymethyl)-methylamino]propane (Tokyo Chemical Industry Co., Ltd.), N-cyclohexylethanolamine (Tokyo Chemical Industry Co., Ltd.), diethanolamine (Wako Pure Chemical Industries, Ltd.), diethylamine (Wako Pure Chemical Industries, Ltd.), dipropylamine (Tokyo Chemical Industry Co., Ltd.), HEPES sodium salt (MP Biomedicals), metoprolol tartrate (Tokyo Chemical Industry Co., Ltd.), morpholine (Wako Pure Chemical Co., Ltd.), octopamine (MP Biomedicals), propylamine (Tokyo Chemical Industry Co., Ltd.), triethylamine (Wako Pure Chemical Co., Ltd.), timolol maleate (Wako Pure Chemical Industries, Ltd.) and tris(hydroxymethyl)aminomethane (Wako Pure Chemical Industries, Ltd.) were used. Each drug was dissolved in distilled water to prepare a sample.
In the culture, DMEM (Nissui Pharmaceutical Co., Ltd.) was used as a culture medium. […] As a control of the drug, the culture was performed in the same manner except that distilled water to which the drug was not added was added to the culture solution instead of the sample.
After the addition of the drug, the glucose concentration of each of the culture solutions was measured immediately after the start of the culture and after the completion of the culture. The glucose concentration was measured using a glucose assay kit (Waco). Then, the glucose concentration after the completion of the culture was divided by the glucose concentration immediately after the start of the culture (5.6 mmol per liter) to calculate the glucose consumption.
The fibroblasts were cultured. […] Streptozotocin, alloxan, and nicotinamide are drugs all known to produce symptoms of diabetes when administered to the body.
Next, samples of streptozotocin, alloxan, and nicotinamide plus 2-amino-1-phenylethanol (2-A-1-P) were prepared in the same manner. The concentration of 2-A-1-P was 1 mg/ml. The relative value of the glucose consumption was calculated in the same manner.
The fibroblasts were cultured.
The concentration of 2-A-1-P was 0.5 mg/ml. The relative value of the glucose consumption was calculated in the same manner.

[2] = test system: Py-3Y1-S2, TE-13, VERO and HepG2 cells; assay: Lactate concentration after 24 to 48 hours culture, mean over four cell types (Example 8); format: cell-based, rat, human, African green monkey; settings: drug 0.5 mg/ml, mean of five experiments in four cell types
Experimental: (§1) After the addition of the drug, the culture solution was diluted so that the weight ratio of the culture solution to distilled water was 1:19, and the lactate concentration of the diluted culture solution was measured. The lactate concentration was measured using a lactate assay kit (product name: Lactate Assay Kit-WST, product of Dojindo Laboratories).
First, a sample of 2-amino-1-cyclohexylethanol (2-amino-1-cyclohexyl EOH) was prepared in the same manner as in Example 1. In addition to the rat-derived fibroblasts (Py-3Y1-S2, subculture line), human-derived esophageal cancer cells (TE-13, subculture line), African green monkey-derived kidney epithelial cells (VERO, subculture line), and human-derived hepatocellular cancer cells (HepG2, subculture line) were used and cultured under the same conditions as in Example 1. […] Thereafter, the culture solutions were further cultured for 24 to 48 hours. The culture time after the addition of the sample was set to the same condition for each cell. As a control 1, the culture was performed in the same manner except that distilled water to which the drug was not added was added to the culture solution instead of the sample. […] Then, the lactate concentration in each sample was measured in the same manner as in Example 6. […]

[3] = test system: Py-3Y1-S2, TE-13, VERO and HepG2 cells; assay: Lactate concentration after 2 to 3 days culture, lactate metabolism, mean over four cell types (Example 9); format: cell-based, rat, human, African green monkey
Experimental: as §1
First, samples of 2-amino-1-cyclohexylethanol (2-amino-1-cyclohexyl EOH) and 2-amino-1-phenylethanol (2-amino-1-phenyl EOH) were prepared in the same manner as in Example 1. Four types of cells were used as in Example 8, and each of the cells was cultured under the same conditions as in Example 1. […] Thereafter, the culture time was lengthened to 2 to 3 days (48 to 72 hours) compared to Example 8. As a control 1, the culture was performed in the same manner except that distilled water to which the drug was not added was added to the culture solution instead of the sample. As a control 2, the culture was performed in the same manner as the […] except that a sample of biguanide prepared in the same manner as in Example 1 was added to the culture solution instead of the sample. Then, the lactate concentration in each sample was measured in the same manner as in Example 6. Each of the four cells was used for a total of four experiments.

[4] = test system: Rat-derived fibroblasts (Py-3Y1-S2, subculture strain); assay: Lactate concentration in culture solution of fibroblasts (relative value, control = 100); format: cell-based; settings: drug 1 mg/ml, control = 100 (FIG. 7A)
Experimental: (§2) First, samples of 2-amino-1-cyclohexylethanol and 2-amino-1-phenylethanol were prepared in the same manner as in Example 1. The fibroblasts and the liver cancer cells were cultured under the same conditions as in Examples 1 and 5. […] As a control, the culture was performed in the same manner except that distilled water to which the drug was not added was added to the culture solution instead of the sample.
as §1

[5] = test system: rat-derived liver cancer cells (Ry121B, subculture line); settings: drug 1 mg/ml, control = 100
[6] = test system: rat-derived liver cancer cells (Ry121B, subculture line); assay: Lactate concentration in culture solution of liver cancer cells (relative value, control = 100); format: cell-based; settings: drug 1 mg/ml, control = 100 (FIG. 7B)
Experimental: as §2, §1

[7] = fibroblasts, drug 0.5 mg/ml, 12 to 24 hours, control = 100 (FIG. 1A, 2A)
[8] = fibroblasts, drug 1 mg/ml, 12 to 24 hours, control = 100 (FIG. 1B, 2B)
[9] = Example 3, fibroblasts, drug alone 1 mg/ml, control = 100

| Compound | relative value of glucose consumption [1, 7] | relative value of glucose consumption [1, 8] | other results |
| --- | --- | --- | --- |
| C1COCCN1 [morpholine] | significantly increased glucose consumption | significantly increased glucose consumption |  |
| OCCNCCO [diethanolamine] | significantly increased glucose consumption | significantly increased glucose consumption |  |
| [O]=[V](=[O])[O][V](=[O])=[O] [V2O5, reference compound] |  |  | relative value of glucose consumption ([1]; Example 4, fibroblasts, drug alone, vanadium final concentration 1.0 mg/ml (V2O5 not printed separately)): about 115 |
| O=S(=O)([O-])CCN1CCN(CCO)CC1.[Na+] [HEPES sodium salt] | significantly increased glucose consumption | significantly increased glucose consumption |  |
| CCN(CC)CC [triethylamine] | significantly increased glucose consumption | significantly increased glucose consumption |  |
| OCC(CO)(CO)NCCCNC(CO)(CO)CO [1,3-bis[tris(hydroxymethyl)methylamino]propane] |  | significantly increased glucose consumption |  |
| NC(=O)c1cccnc1 [nicotinamide, reference compound] |  |  | relative value of glucose consumption [1, 9]: about 85 |
| OCCNC1CCCCC1 [N-cyclohexylethanolamine] | significantly increased glucose consumption | significantly increased glucose consumption |  |
| COCCc1ccc(OCC(O)CNC(C)C)cc1.COCCc1ccc(OCC(O)CNC(C)C)cc1.O=C(O)C(O)C(O)C(=O)O (stereo not shown) [metoprolol tartrate, reference compound] | significantly increased glucose consumption | significantly increased glucose consumption |  |
| tris(hydroxymethyl)aminomethane | significantly increased glucose consumption | significantly increased glucose consumption |  |
| CC(C)(C)NC[C@H](O)COc1nsnc1N1CCOCC1.O=C(O)/C=C\C(=O)O [timolol maleate, reference compound] | significantly increased glucose consumption | significantly increased glucose consumption |  |
| CCCN [propylamine] | significantly increased glucose consumption | significantly increased glucose consumption |  |
| N=C(N)NC(=N)N [biguanide, reference compound] |  |  | lactate concentration in the culture solution [2]: increased the lactate concentration; lactate concentration relative to Control 1 ([3]; 2 to 3 days culture after addition of biguanide, P<0.05): about 3.5 times |
| O=C1NC(=O)C(=O)C(=O)N1 [alloxan, reference compound] |  |  | relative value of glucose consumption [1, 9]: about 70 |
| CC(O)CN (stereo not shown) [1-amino-2-propanol] | significantly increased glucose consumption |  |  |
| NCCO [2-aminoethanol] | significantly increased glucose consumption | significantly increased glucose consumption |  |
| CN(N=O)C(=O)N[C@H]1C(O)O[C@H](CO)[C@@H](O)[C@@H]1O (mixture of isomers) [streptozotocin, reference compound] |  |  | relative value of glucose consumption [1, 9]: about 90 |
| CCNCC [diethylamine] | significantly increased glucose consumption | significantly increased glucose consumption |  |
| concanavalin A [reference compound] |  |  | relative value of glucose consumption ([1]; Example 4, fibroblasts, ConA alone 100 μg/ml): about 120 |
| NCC(O)C1CCCCC1 (stereo not shown) [2-amino-1-cyclohexylethanol] | significantly increased glucose consumption | significantly increased glucose consumption | relative value of glucose consumption ([1]; Example 2, fibroblasts, drug 0.1 mg/ml, control = 100): about 120; relative value of glucose consumption ([1]; Example 2, fibroblasts, drug 0.25 mg/ml, control = 100): about 130; relative value of glucose consumption ([1]; Example 2, fibroblasts, drug 0.5 mg/ml, control = 100): about 150; lactate concentration in the culture solution [2]: 9.35 mmol/L; relative value of lactate concentration [4]: about 145; lactate concentration in the culture solution compared to control 1 ([3]; drug 0.5 mg/ml, 2 to 3 days (48 to 72 hours) culture, mean of four experiments): equivalent to that of control 1; relative value of glucose consumption [5]: about 145; relative value of lactate concentration [6]: about 140 |
| CCCNCCC [dipropylamine] | significantly increased glucose consumption | significantly increased glucose consumption |  |
